The results in this text go back to patent US20040152694A1, “Methods and compositions for treating inflammatory disorders of the airways” (priority 2003, published 2004).

Assay [1] concerns trachea of ovalbumin-sensitized and challenged BN-rats. In words: Tracheal contraction to acetylcholine ex vivo after antigen challenge, oral pretreatment. Type of assay: in vivo, rat. The note with it: for MAX: Contraction at maximal Ach concentration relative to control / ED50: −log M acetylcholine (Ach) causing 50% contraction relative to control: 3.0 mg/kg orally 2 hours before antigen challenge, mean ± SEM; for MAX: Contraction at maximal Ach concentration relative to control: control = 100; for ED50: −log M acetylcholine (Ach) causing 50% contraction relative to control: trachea 48 h post challenge; for Tracheal hyper-reactivity to acetylcholine after ovalbumin challenge: dose of 3.0 mg/kg, oral. How it is done:
(§1) Rats were actively sensitized to ovalbumin (OA) by a subcutaneous injection of 0.5 ml of OA/Al(OH3) gel mixture (2 mg OA+10 g Al(OH3)/100 ml saline) on day 1 with subsequent subcutaneous injections (10 mg OA+10 g Al(OH3)/100 ml saline) given on days 14 and 21. On day 28, animals received GYKI-52466, GYKI-47261 or GYKI-53773 compound orally (0.3 mg/kg or 3.0 mg/kg) 2 hours before antigen challenge. Antigen challenge was performed by inhalation of nebulised ovalbumin (1% antigen solution administered in a TSE inhalation system for 1 hour). Animals were sacrificed 48 hours post antigen challenge wherein the tracheas were removed to an organ bath. Dissected tracheas were allowed to equilibrate for 30 minutes before measuring tracheal spasmogenic response curves to acetylcholine (Ach).

The test system is the same in assay [2]. Briefly: Tracheal contraction to acetylcholine ex vivo after antigen challenge, local (intratracheal) treatment with GYKI-53773. Type of assay: in vivo, rat. On the procedure: as §1
The procedures of Example 2 were followed in order to compare the effects of antigen exposure and local (intratracheal) GYKI 53773 treatments on Ach-induced tracheal contractions in allergen sensitized and challenged rats.

The subject of assay [3] is isolated guinea pig trachea. Briefly: Endothelin-1-induced contraction of isolated guinea pig trachea in vitro. The note with it: for Emax at 10 µM / Emax at 30 µM: Cavia porcellus, 25 min, read-out: Contraction %: percent of maximal response to 4.5 μM histamine. How it is done: In order to measure the effect of GYKI 52466 and 53773 (talampanel) on endothelin-1-induced contractions in isolated guinea pig trachea the following procedures were followed. The tracheae of male Dunkin-Hartley guinea pigs (350-450 g) were removed; helical strips were prepared and mounted in an organ bath. After equilibration, the strips were contracted with endothelin-1 and when contraction had reached the plateau, different concentrations of GYKI-52466, 53773 or the suitable vehicles were added into the chambers. Changes in tensions were expressed as the percentage of the maximal response to 4.5 μM histamine measured at the beginning of the experiment.

Assay [4] concerns airways epithelial cells of antigen sensitized BN rats. In words: Allergen-induced mucus production of airways epithelial cells, PAS staining. Type of assay: in vivo, rat. The note with it: mean ± SEM. How it is done:
Antigen sensitized BN rats were pretreated orally with 0.3, 3 and 30 mg/kg GYKI-52466 or GYKI-53773 (Talampanel) 2 hours prior to antigen challenge using a similar protocol that was described in Example 2. Lungs were isolated 48 hours subsequent to antigen exposure; samples were fixed in phosphate-buffered 8% formalin. Specimens were then routinely processed for histochemistry. In the periodic acid-Schiff stained (PAS) and haematoxylin-eosin counterstained, 5 μm thick sections, all epithelial cells of each airway segments were counted in the whole preparations at a magnification of 400×. The number of PAS(+) [mucus-producing] epithelial cells are expressed as the ratio of all epithelial cells.

In assay [5] the test system is Rat aortic smooth muscle cells (primary). In words: Growth factor-induced proliferation of smooth muscle cells, 3H-thymidine incorporation, RASMC. Type of assay: cell-based. How it is done: (§2) Primary and permanently cultured rat aortic smooth muscle cells were made senescent by serum deprivation (0.1% FCS, 48 hours). Proliferation was induced by re-addition of serum (10%) containing the necessary growth factors and the effect of different concentrations of the AMPA receptor modulators on the proliferation of the cells was determined by measuring ^3H-thymidine incorporation.

Assay [6] relates to A7r5 established smooth muscle cell line (ATCC). Briefly: Growth factor-induced proliferation of smooth muscle cells, 3H-thymidine incorporation, A7r5. Type of assay: cell-based, rat. On the procedure:
as §2

Assay [7] concerns AMPA receptors. In words: Ventilated, perfused rat lung: AMPA-induced lung injury. How it is done:
The presence/function of AMPA receptors in the lung of experimental animals was investigated in the same model (ventilated perfused rat lung) that was applied for the examination of NMDA-receptors by Said et al., (Proc Natl. Acad. Sci. (USA) 93:4688 (1996). The lung of anesthetized SPRD rats were ventilated and were in situ perfused with a constant flow of Krebs solution. L-arginine, AMPA and AMPA-antagonist were added directly to the perfusate as described by Said et al, supra. As it is shown in Table 2, activation of the AMPA receptors triggered an acute edematous lung injury manifested by the significant increase in airway pressure (PAW) pulmonary artery pressure (PAP) and the ratio of wet and dry weight of the lung after the treatment.

The subject of assay [8] is trachea of ovalbumin-sensitized and challenged BN-rats. In words: Tracheal contraction to acetylcholine ex vivo after antigen challenge, systemic (intraperitoneal) NBQX. Type of assay: in vivo, rat. On the procedure: as §1
The procedures of Example 2 were followed in order to compare the effects of antigen exposure and systemic (intraperitoneal) NBQX treatments on Ach-induced tracheal contractions in allergen sensitized and challenged rats.

For assay [9] the test system is unchanged. In words: Tracheal contraction to acetylcholine ex vivo after antigen challenge, local (intratracheal) NBQX. Type of assay: in vivo, rat. The note with it: for ED50: −log M acetylcholine (Ach) causing 50% contraction relative to control / MAX: Contraction at maximal Ach concentration relative to control: local.
[10] abbreviates: second dose column (dose number not given).
The mark [11] stands for this setting: third dose column (dose number not given).
The mark [12] stands for this setting: 0.3 mg/kg orally 2 hours prior to antigen challenge, lungs 48 hours after.
The mark [13] stands for this setting: 3 mg/kg orally 2 hours prior to antigen challenge.
The mark [14] stands for this setting: 30 mg/kg orally 2 hours prior to antigen challenge.
[15] abbreviates: AMPA (200 μM) alone in perfusate, SPRD rats.
Setting [16] is: third (highest) dose column (dose number not given).

Each structure is given as a SMILES string. Where two headings read alike, the source gives them in different places.

As for `CC(=O)N1N=C(c2ccc(N)cc2)c2cc3c(cc2CC1C)OCO3` (single isomer, unassigned; (-)) [GYKI-53773, (−)-1-(4-Aminophenyl)-3-acetyl-4-methyl-3,4-dihydro-7,8-methylenedioxy-5H-2,3-benzodiazepine], the “MAX: Contraction at maximal Ach concentration relative to control” value was 85 ± 16 in assay [1]; 202 ± 66 in assay [2] (first dose column (dose number not given), challenged 312, control 100); 113 ± 19 in assay [2] (setting [10]); 129 ± 30 in assay [2] (setting [11]). In addition, the “ED50: −log M acetylcholine (Ach) causing 50% contraction relative to control” value in assay [1] is on record as 4.64 ± 0.34 −log M; in [2] (first dose column (dose number not given), challenged 7.22, control 5.89), 5.80 ± 0.47 −log M; in assay [2] (setting [10]), 5.73 ± 0.39 −log M; in assay [2] (setting [11]), 5.68 ± 0.55 −log M. In assay [1], the “Tracheal hyper-reactivity to acetylcholine after ovalbumin challenge” value (“Tracheal hyper-reactivity” below) was “brought this elevation back to control level”. In addition, in assay [2] (1 μg/kg, single administration), the “Allergen-induced airways hyperresponsiveness” value was “strongly reduced the allergen-induced airways hyperresponsiveness”. The “Contraction caused by ET-1 in the isolated guinea pig trachea” value in [3] is “dose-dependently inhibit the contraction”. For the same compound, in assay [3] (10 μM, 25 minutes after addition, vehicle 84 ± 8, Mean ± SD (n)), the Emax at 10 µM was determined as 43 ± 9%. For the same compound, in assay [3] (30 μM, 25 minutes after addition, vehicle 66 ± 8, Mean ± SD (n)), the Emax at 30 µM amounted to 7 ± 4%. The “% PAS(+) cells of total epithelial cells” value in [4] (setting [12]) was found to be 12.34 ± 1.39%; in assay [4] (setting [13]), 9.49 ± 1.08%; in assay [4] (setting [14]) it was 5.02 ± 0.75%. In addition, the “Inhibition (% of control) RASMC” value in assay [5] (0.03 μg/ml) was 26 % of control; in assay [5] (0.3 μg/ml), 59 % of control; in [5] (3.0 μg/ml), 70 % of control. Moreover, the figures for the “Inhibition (% of control) A7r5” value in [6] (0.03 μg/ml), in assay [6] (0.3 μg/ml) and in [6] (3.0 μg/ml) were 21 % of control, 43 % of control and 87 % of control, respectively.
As to `CNC(=O)N1N=C(c2ccc(N)cc2)c2cc3c(cc2CC1C)OCO3` (single isomer, unassigned; (-)) [GYKI-53784, (−)-1-(4-Aminophenyl)-3-methylcarbamoyl-4-methyl-7,8-methylenedioxy-3,4-dihydro-5H-2,3-benzodiazepine], in [7] (AMPA (200 μM) + 53784 (200 μM), AMPA alone 14.8, control 6.6), the “W/D: Ratio of wet and dry weight of lungs after 60-minute perfusion” value is recorded as 14.3 ± 5.6 (4). Further, in [7] (AMPA (200 μM) + 53784 (200 μM), AMPA alone 147.9, control 96.0), the “PAP: Pulmonary artery pressure after 60 minutes perfusion as a percent of 0 minute pressure” value was 114.0 ± 23.0 (4) percent. Further, the “PAW: Airway pressure after 60 minute perfusion as a percent of 0 minute pressure” value in [7] (AMPA (200 μM) + 53784 (200 μM), AMPA alone 183.4, control 99.3) was 110.3 ± 19.1 (4) percent. Further, in [7] (AMPA-treated perfused rat lung), the “Effect on airway and pulmonary arterial pressures” value is “decreased both the airway and the pulmonary arterial pressures”.
For the compound `Cc1onc(O)c1CC(N)C(=O)O` (stereo not drawn) [AMPA, α-Amino-3-hydroxy-5-methyl-4-isoxazole propionate], in assay [7] (setting [15]), the “PAP: Pulmonary artery pressure after 60 minutes perfusion as a percent of 0 minute pressure” value is given as 147.9 ± 8.6 (7) percent; the “W/D: Ratio of wet and dry weight of lungs after 60-minute perfusion” value was 14.8 ± 3.9 (3). Also, the “PAW: Airway pressure after 60 minute perfusion as a percent of 0 minute pressure” value in [7] (AMPA (200 μM) alone in perfusate, SPRD rats, n in brackets) is listed as 183.4 ± 15.6 (7) percent.
Turning to `Cc1cn2c(n1)Cc1ccc(Cl)cc1C(c1ccc(N)cc1)=N2` [GYKI-47261], in [1], the “MAX: Contraction at maximal Ach concentration relative to control” value came to 98 ± 13, the “ED50: −log M acetylcholine (Ach) causing 50% contraction relative to control” value is 5.26 ± 0.30 −log M and the “Tracheal hyper-reactivity” value was “brought this elevation back to control level”.
Regarding `CC1=NN=C(c2ccc(N)cc2)c2cc3c(cc2C1)OCO3` [GYKI-52466, 1-(4-Aminophenyl)-4-methyl-7,8-methylenedioxy-5H-2,3-benzodiazepine], in assay [1], the “MAX: Contraction at maximal Ach concentration relative to control” value is 135 ± 32, the “ED50: −log M acetylcholine (Ach) causing 50% contraction relative to control” value is listed as 5.60 ± 0.46 −log M and the “Tracheal hyper-reactivity” value is on record as “brought this elevation back to control level”. Moreover, in [3], the “Contraction caused by ET-1 in the isolated guinea pig trachea” value is listed as “dose-dependently inhibit the contraction”, the Emax at 10 µM stood at 53 ± 7% and the Emax at 30 µM came out at 23 ± 9%. The “% PAS(+) cells of total epithelial cells” value in assay [4] (setting [12]) was determined as 16.09 ± 1.82%. In assay [4] (setting [13]), the “% PAS(+) cells of total epithelial cells” value came to 15.18 ± 1.68%. In addition, in assay [4] (setting [14]), the “% PAS(+) cells of total epithelial cells” value was found to be 14.17 ± 1.59%.
As to `NS(=O)(=O)c1cccc2c1c([N+](=O)[O-])cc1[nH]c(=O)c(=O)[nH]c12` [NBQX, 2,3-Dihydroxy-6-nitro-7-sulphamoyi-benzo(f)quinoxaline], the “ED50: −log M acetylcholine (Ach) causing 50% contraction relative to control” value in assay [8] (0.15 mg/kg intraperitoneal, challenged 7.31, control 6.16) is recorded as 6.29 ± 0.51 −log M; in [8] (1.5 mg/kg intraperitoneal), 4.98 ± 0.80 −log M; in assay [8] (15 mg/kg intraperitoneal), 5.11 ± 0.55 −log M; in assay [9] (first dose column (dose number not given), challenged 6.70, control 5.68) it was 5.85 ± 0.59 −log M; in [9] (setting [10]), 5.20 ± 0.72 −log M; in [9] (setting [16]) it was 3.44 ± 0.36 −log M. Also, the “MAX: Contraction at maximal Ach concentration relative to control” value in assay [8] (0.15 mg/kg intraperitoneal, challenged 308, control 100) is recorded as 178 ± 65; in assay [8] (1.5 mg/kg intraperitoneal), 115 ± 30; in assay [8] (15 mg/kg intraperitoneal), 125 ± 32; in assay [9] (first dose column (dose number not given), challenged 327, control 100), 308 ± 128; in assay [9] (setting [10]), 108 ± 28; in assay [9] (setting [16]), 60 ± 14. Further, the “Allergen-induced airways hypersensitivity, ED50 and maximal provoked response” value in [8] (intraperitoneal, dose-dependent) is on record as “strongly inhibits both parameters”. The “Allergen-induced airways hypersensitivity” value in assay [9] (local administration, statistically significant only at the highest applied dose) is listed as “inhibits allergen-induced airways hypersensitivity in a dose-dependent manner”. In addition, the “Inhibition (% of control) RASMC” value in assay [5] (0.03 μg/ml) was 1 % of control; in [5] (0.3 μg/ml) it was 5 % of control; in assay [5] (3.0 μg/ml), 94 % of control.
